The record followed here is article PMC7845692 (Frontiers in Pharmacology, 2020).

Each structure is given as a SMILES string. Where a name gives a salt, the structure may show the parent alone. Read-outs that look alike come from different tables or passages of the source.

The test system of one data set is HCoV-OC43. Briefly: HCoV-OC43 viral yield, end point dilution assay / TCID50. The settings on record: for complete reduction of HCoV-OC43 viral yield: HCT-8, MOI 0.05, supernatant 72 h.p.i., at 30, 100 and 300 nM respectively (dbq33b, dbq33b4p7, PI09); for concentration accomplishing complete reduction of HCoV-OC43 viral yield: HCT-8, MOI 0.05, reduction ∼7–8 log. Type of data set: cell-based, Human coronavirus OC43.

Data set [1] concerns HCoV-229E. Kind of data set: HCoV-229E viral yield, end point dilution assay / TCID50. Particulars: MRC-5, MOI 0.05; for complete reduction of HCoV-229E viral yield: at 100, 300 and 600 nM respectively (dbq33b, dbq33b4p7, PI09); for concentration giving complete reduction of HCoV-229E viral yield: reduction 6–7 log.
In data set [2] the test system is HCoV-229E. Kind of data set: HCoV-229E viral RNA (ORF1, ORF N) by semi-RT-qPCR in MRC-5 cells. In kind it is cell-based, Human coronavirus 229E. The settings on record: MRC-5, MOI 1, 30 h.p.i., 10–300 nM, dose dependent. On the procedure: These experiments were performed as described ([Yang et al., 2007b]). Mock or HCoV-229E infected (MOI of 1) lysates were processed and prepared at 30 h.p.i. without or with compound treatment. The total RNA was extracted with TRIzol reagent (Invitrogen). The relative viral RNA expression levels were determined by semi-RT-qPCR, analyzed with the ImageJ Analyzer program (http://imagej.nih.gov/ij/index.html), and normalized with the housekeeping gene GAPDH. The primers used to amplify the PCR products were 5′-GGCGAGGTGGAATTTGTTTA-3′ and 5′-ACCTTTAAGCCACCATGTGC-3′ for ORF1; 5′-TCTGCCAAGAGTCTTGCTCG-3′ and 5′-AGCATAGCAGCTGTTGACGG-3′ for ORF N. The amplification of target cDNA was conducted under the following conditions: 25 cycles of 95°C for 30 s, 55°C for 20 s, and 72°C for 30 s for ORF N; 29 cycles of 95°C for 30 s, 55°C for 20 s, and 72°C for 30 s for ORF1, and 35 cycles of 95°C for 30 s, 55°C for 20 s, and 72°C for 30 s for GAPDH. The final PCR products were subjected to electrophoresis on 2% agarose gel containing ethidium bromide along with DNA markers.
(Quantitative PCR measures a nucleic acid by following its amplification.)

A further data set concerns Human coronavirus OC43. Kind of data set: HCoV-OC43 immunofluorescent assay (IFA) against N protein in HCT-8 cells. In kind it is cell-based. The settings on record: for EC50: read-out: Human coronavirus OC43 EC50 (IFA); for Human coronavirus OC43 Selectivity index: CC50/EC50, HCT-8 cells.
In data set [3] the test system is SARS-CoV-2. Kind of data set: SARS-CoV-2 cytopathic effect by visualization in Vero E6 cells. The settings on record: for SARS-CoV-2 Selectivity index (CPE/visualization): CC50/EC50, Vero E6 cells; for EC50: Severe acute respiratory syndrome coronavirus 2, Vero C1008, Vero E6 cells, means from duplicate, read-out: SARS-CoV-2 EC50 CPE/visualization. Type of data set: cell-based. On the procedure:
(§1) CPE was performed as described ([Wu et al., 2004]). For IFA, Vero E6 cells (BCRC number: 60476; derived from ATCC CRL-1586) were treated with each compound at the indicated concentration for 1 h at 37°C. The cells were adsorbed with SARS-CoV-2 (TCDC#4) (sequence available on the GISAID website) at an MOI = 0.01 for 1 h at 37°C. After virus adsorption, the cells were washed with PBS and fresh medium containing each compound at the indicated concentration was added. After 2 days, cells were fixed with 4% paraformaldehyde and permeabilized with 0.5% Triton X-100. The cells were stained with anti-SARS-CoV-2 N protein antibody, provided by Dr. An-Suei Yang of the Genomics Research Center, Academia Sinica, and goat anti-human IgG-Alexa Fluor 488 (A11013, Invitrogen) (in green). The nuclei were counter stained with DAPI (in blue) (D1306, Invitrogen). The N protein expression was measured using a high-content image analysis system (Molecular Devices). The cell viability was determined by Cell Counting Kit-8 (CCK-8) (Sigma-Aldrich, cat #96992). EC50 and CC50 values were calculated by Prism software.
On the technique in general: Protection from cytopathic effect is a common read-out in antiviral testing.

In data set [4] the test system is SARS-CoV-2. Briefly: SARS-CoV-2 IFA against N protein in Vero E6 cells. In kind it is cell-based. The settings on record: for SARS-CoV-2 Selectivity index (IFA/CCK-8): CC50/EC50, Vero E6 cells. As to the method: as §1
Data set [5] deals with SARS-CoV-2. Kind of data set: microbe, parasite or virus in culture. In kind it is cell-based.
Another data set relates to Human coronavirus 229E. Kind of data set: HCoV-229E cytopathic effect, crystal violet absorbance in MRC-5 cells. The settings on record: CC50/EC50, MRC-5 cells.
Data set [6] in a line: cell cytotoxicity by visualization (FIPV host cells). The settings on record: cat.
Procedure: (§2) The serotype II FIPV Taiwan isolate NTU156 strain, a kind gift from National Taiwan University, was propagated and titrated in Fcwf-4 cells ([Lin et al., 2009]). The EC50 for anti-FIPV activity and CC50 for cell cytotoxicity were determined as previously described ([Yang et al., 2020b]).
Data set [7] is described as follows: HCT-8 cell viability (MTS). The settings on record: human, HCT-8 cells.
Data set [8] is described as follows: Vero E6 cell viability (CCK-8). Type of data set: cell-based. The settings on record: African green monkey, Vero E6 cells; read-out: SARS-CoV-2 CC50 CCK-8. On the procedure:
as §1

The nature of data set [9]: Vero E6 cytotoxicity by visualization. Type of data set: cell-based. Particulars: African green monkey, Vero E6 cells; read-out: SARS-CoV-2 CC50 Visualization. On the procedure: as §1
The nature of data set [10]: in vitro. The settings on record: human, MRC-5 cells.
Data set [11] concerns Feline infectious peritonitis virus. Briefly: anti-FIPV activity, cytopathic effect by visualization in Fcwf-4 cells. The settings on record: for EC50: Alphacoronavirus 1, read-out: Feline infectious peritonitis virus EC50 CPE/visualization; for Feline infectious peritonitis virus Selectivity index: CC50/EC50, Fcwf-4 cells.
Procedure: as §2
Data set [12] is described as follows: in vitro. Particulars: cat.
Procedure: as §2
Data set [13] in a line: in vitro. Particulars: human.
The mark [14] stands for this setting: Betacoronavirus 1, OC43, HCT-8, 72 h.
Where [15] appears, read: Severe acute respiratory syndrome coronavirus 2, Vero C1008, 48 h, read-out: SARS-CoV-2 EC50 IFA, Vero E6 cells, MOI 0.01, 2 d.p.i., N protein.
Where [16] appears, read: Vero E6 cells, MOI 0.01, 2 d.p.i., N protein, read-out: SARS-CoV-2 EC50 IFA.

Take `CCN1Cc2c(c3ccc(OC)cc3c3cc(OC)c(OC)cc23)C(O)C1` (stereo not drawn) [dbq33b]: the “complete reduction of HCoV-OC43 viral yield” value in the data set with HCoV-OC43 is listed as 7–8 log of magnitudes. Also, the “concentration accomplishing complete reduction of HCoV-OC43 viral yield” value in the data set with HCoV-OC43 came out at 30 nM. Besides, the “complete reduction of HCoV-229E viral yield” value in the data set on HCoV-229E [1] is recorded as 6–7 log of magnitudes. Further, the “concentration giving complete reduction of HCoV-229E viral yield” value with HCoV-229E [1] turned out to be 100 nM. Also, the “effect on HCoV-229E viral genome replication and subgenomic viral RNA syntheses (RT-PCR ORF1, ORF N)” value with HCoV-229E [2] is “inhibited HCoV-229E viral genome replication and subgenomic viral RNA syntheses”. Also, the EC50 was 16 ± 5 nM in the data set on Human coronavirus OC43 (setting [14]); 2.5 nM in the data set with SARS-CoV-2 [3]; 14 nM in the data set on SARS-CoV-2 [4] (setting [15]); 13.9 nM in the data set on SARS-CoV-2 [4] (setting [16]); 14 nM in the data set with SARS-CoV-2 [5] (Severe acute respiratory syndrome coronavirus 2, Vero C1008, read-out: SARS-CoV-2 plaque assay EC50, Vero E6 cells); 13.8 ± 0.3 nM in the data set on SARS-CoV-2 [5] (Severe acute respiratory syndrome coronavirus 2, Vero C1008, read-out: SARS-CoV-2 plaque assay EC50, Vero E6 cells, 5–7 days, Figure 5B-b). Further, the EC50 in data set [11] was determined as 8 ± 2 nM. Moreover, the “Human coronavirus OC43 Selectivity index” value in the data set on Human coronavirus OC43 is above 610. In the data set with SARS-CoV-2 [3], the “SARS-CoV-2 Selectivity index (CPE/visualization)” value stood at 500. In the data set with SARS-CoV-2 [4], the “SARS-CoV-2 Selectivity index (IFA/CCK-8)” value was 367. Moreover, in the data set with Human coronavirus 229E, the “Human coronavirus 229E Selectivity index” value amounted to 264. In addition, the CC50 worked out at 3.12 µM in data set [6], 5.1 µM in data set [8], 1250 nM in [9] and 1.71 µM in the data set “in vitro [10]”. This molecule also returned a CC50 at 72 h in data set [7] above 10 µM. Also, the “Feline infectious peritonitis virus Selectivity index” value in data set [11] is reported as 390.6.
With `C[C@H]1O[C@@H](O[C@H]2[C@@H](O)C[C@H](O[C@H]3[C@@H](O)C[C@H](O[C@H]4CC[C@@]5(C)[C@H](CC[C@@H]6[C@@H]5CC[C@]5(C)[C@@H](C7=CC(=O)OC7)CC[C@]65O)C4)O[C@@H]3C)O[C@@H]2C)C[C@H](O)[C@@H]1O` [Digitoxin, digitoxin], the CC50 in the data set “in vitro [12]” stood at 0.825 ± 0.195 µM; in “in vitro [13]”, 909 ± 123 nM. For the same molecule, the EC50 in the data set on Human coronavirus OC43 (Betacoronavirus 1, OC43, HCT-8 cells, MOI 0.05, 72 h.p.i., means ± SD) turned out to be 88 ± 16 nM; in data set [11] it was 97 ± 6 nM. Further, the “Human coronavirus OC43 Selectivity index” value with Human coronavirus OC43 is on record as 10.3. In addition, in [11], the “Feline infectious peritonitis virus Selectivity index” value is 8.5.
For the molecule `CCN1Cc2c(c3ccc(OC)cc3c3cc(OC)c(OC)cc23)C(O)C1C` (stereo not drawn) [dbq33b4p7], the “complete reduction of HCoV-OC43 viral yield” value in the data set with HCoV-OC43 was 7–8 log of magnitudes. Further, the “concentration accomplishing complete reduction of HCoV-OC43 viral yield” value in the data set with HCoV-OC43 is on record as 100 nM. Further, in the data set on HCoV-229E [1], the “complete reduction of HCoV-229E viral yield” value is recorded as 6–7 log of magnitudes. Further, the “concentration giving complete reduction of HCoV-229E viral yield” value with HCoV-229E [1] is listed as 300 nM. For the same molecule, in the data set on HCoV-229E [2], the “effect on HCoV-229E viral genome replication and subgenomic viral RNA syntheses (RT-PCR ORF1, ORF N)” value was “inhibited HCoV-229E viral genome replication and subgenomic viral RNA syntheses”. Further, the EC50 worked out at 56 ± 6 nM in the data set with Human coronavirus OC43 (setting [14]); 20 nM in the data set on SARS-CoV-2 [3]; 32 nM in the data set on SARS-CoV-2 [4] (setting [15]); 31.9 nM in the data set with SARS-CoV-2 [4] (setting [16]); 20 ± 7 nM in [11]. Moreover, the “Human coronavirus OC43 Selectivity index” value in the data set on Human coronavirus OC43 is reported as above 179. Further, in the data set on SARS-CoV-2 [3], the “SARS-CoV-2 Selectivity index (CPE/visualization)” value was 125. The “SARS-CoV-2 Selectivity index (IFA/CCK-8)” value in the data set on SARS-CoV-2 [4] worked out at 93. Also, the “Human coronavirus 229E Selectivity index” value with Human coronavirus 229E is reported as 290. Moreover, the CC50 in data set [6] turned out to be 6.25 ± 2.17 µM; in data set [8], 2.97 µM; in data set [9], 2500 nM; in “in vitro [10]” it was 7.36 µM. Further, in data set [7], the CC50 at 72 h was above 10 µM. Moreover, the “Feline infectious peritonitis virus Selectivity index” value in [11] stood at 312.5.
In the data set “in vitro [12]”, `C[C@]12CCC(=NOCCN)C[C@@H]1C(=O)C[C@@H]1[C@@H]2CC[C@]2(C)C(=O)CC[C@@H]12` [Istaroxime, istaroxime hydrochloride] showed a CC50 of 7.12 ± 0.75 µM. This molecule returned a CC50 at 72 h in the data set “in vitro [13]” of 32 µM. For the same molecule, the EC50 in the data set on Human coronavirus OC43 (setting [14]) stood at 5420 ± 268 nM; in data set [11] it was 2160 nM. In the data set on Human coronavirus OC43, the “Human coronavirus OC43 Selectivity index” value is reported as 5.9. The “Feline infectious peritonitis virus Selectivity index” value in data set [11] was determined as 3.3.
